From PubChem BioAssay (NCI)
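96-well plates; 48 h exposure; 5 concentrations. Endpoints by linear interpolation between flanking doses. Not reached: highest tested concentration assigned. GI50 marks 50% less growth. TGI: total growth inhibition.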

Key:
Experiment in all cases: growth of human tumour cells (NCI), 48 h
786-0 renal = test system: 786-0 renal
A498 renal = test system: A498 renal
A549 NSCLC = test system: A549 NSCLC
ACHN renal = test system: ACHN renal
BT-549 breast = test system: BT-549 breast
CAKI-1 renal = test system: CAKI-1 renal
CCRF-CEM leukemia = test system: CCRF-CEM leukemia
COLO 205 colon = test system: COLO 205 colon
DU-145 prostate = test system: DU-145 prostate
EKVX NSCLC = test system: EKVX NSCLC
HCC-2998 colon = test system: HCC-2998 colon
HCT-116 colon = test system: HCT-116 colon
HCT-15 colon = test system: HCT-15 colon
HL-60(TB) leukemia = test system: HL-60(TB) leukemia
HOP-62 NSCLC = test system: HOP-62 NSCLC
HOP-92 NSCLC = test system: HOP-92 NSCLC
HS 578T breast = test system: HS 578T breast
HT29 colon = test system: HT29 colon
IGROV1 ovarian = test system: IGROV1 ovarian
K-562 leukemia = test system: K-562 leukemia
KM12 colon = test system: KM12 colon
LOX IMVI melanoma = test system: LOX IMVI melanoma
M14 melanoma = test system: M14 melanoma
MALME-3M melanoma = test system: MALME-3M melanoma
MCF7 breast = test system: MCF7 breast
MDA-MB-231 breast = test system: MDA-MB-231 breast
MDA-MB-435 = test system: MDA-MB-435
MDA-MB-468 breast = test system: MDA-MB-468 breast
MOLT-4 leukemia = test system: MOLT-4 leukemia
NCI-H226 lung = test system: NCI-H226 lung
NCI-H23 lung = test system: NCI-H23 lung
NCI-H460 lung = test system: NCI-H460 lung
NCI-H522 lung = test system: NCI-H522 lung
NCI/ADR-RES ovarian = test system: NCI/ADR-RES ovarian
OVCAR-3 ovarian = test system: OVCAR-3 ovarian
OVCAR-4 ovarian = test system: OVCAR-4 ovarian
OVCAR-5 ovarian = test system: OVCAR-5 ovarian
OVCAR-8 ovarian = test system: OVCAR-8 ovarian
PC-3 prostate = test system: PC-3 prostate
RPMI-8226 leukemia = test system: RPMI-8226 leukemia
RXF 393 renal = test system: RXF 393 renal
SF-268 CNS = test system: SF-268 CNS
SF-295 CNS = test system: SF-295 CNS
SF-539 CNS = test system: SF-539 CNS
SK-MEL-2 melanoma = test system: SK-MEL-2 melanoma
SK-MEL-28 melanoma = test system: SK-MEL-28 melanoma
SK-MEL-5 melanoma = test system: SK-MEL-5 melanoma
SK-OV-3 ovarian = test system: SK-OV-3 ovarian
SN12C renal = test system: SN12C renal
SNB-19 CNS = test system: SNB-19 CNS
SNB-75 CNS = test system: SNB-75 CNS
SR leukemia = test system: SR leukemia
SW-620 colon = test system: SW-620 colon
T-47D breast = test system: T-47D breast
TK-10 renal = test system: TK-10 renal
U251 CNS = test system: U251 CNS
UACC-257 melanoma = test system: UACC-257 melanoma
UACC-62 melanoma = test system: UACC-62 melanoma
UO-31 renal = test system: UO-31 renal

CC(=O)Nc1nc(-c2ccc(N3CCN(C)CC3)c(NS(=O)(=O)c3cccc4c(N(C)C)cccc34)c2)cs1
GI50 (786-0 renal): 11.7 µM | TGI (786-0 renal): 24.6 µM | GI50 (A498 renal): 13.1 µM | TGI (A498 renal): 24.5 µM | GI50 (A549 NSCLC): 14.2 µM | TGI (A549 NSCLC): 30.2 µM | GI50 (ACHN renal): 13.7 µM | TGI (ACHN renal): 25.3 µM | GI50 (BT-549 breast): 11.3 µM | TGI (BT-549 breast): 23.5 µM | GI50 (CAKI-1 renal): 14 µM | TGI (CAKI-1 renal): 26.2 µM | GI50 (CCRF-CEM leukemia): 13.2 µM | TGI (CCRF-CEM leukemia): 38.2 µM | GI50 (COLO 205 colon): 12.5 µM | TGI (COLO 205 colon): 27.9 µM | GI50 (DU-145 prostate): 14 µM | TGI (DU-145 prostate): 26 µM | GI50 (EKVX NSCLC): 13.1 µM | TGI (EKVX NSCLC): 25.7 µM | GI50 (HCC-2998 colon): 12.4 µM | TGI (HCC-2998 colon): 24 µM | GI50 (HCT-116 colon): 12.3 µM | TGI (HCT-116 colon): 28.8 µM | GI50 (HCT-15 colon): 12.6 µM | TGI (HCT-15 colon): 25.4 µM | GI50 (HL-60(TB) leukemia): 9.4 µM | TGI (HL-60(TB) leukemia): 24.9 µM | GI50 (HOP-62 NSCLC): 12.6 µM | TGI (HOP-62 NSCLC): 25.8 µM | GI50 (HOP-92 NSCLC): 9.15 µM | TGI (HOP-92 NSCLC): 20.4 µM | GI50 (HS 578T breast): 11.6 µM | TGI (HS 578T breast): 43.6 µM | GI50 (HT29 colon): 8.91 µM | TGI (HT29 colon): 21.3 µM | GI50 (IGROV1 ovarian): 14.2 µM | TGI (IGROV1 ovarian): 26.3 µM | GI50 (K-562 leukemia): 15.9 µM | TGI (K-562 leukemia): 85.5 µM | GI50 (KM12 colon): 14.4 µM | TGI (KM12 colon): 28.4 µM | GI50 (LOX IMVI melanoma): 10.7 µM | TGI (LOX IMVI melanoma): 21.9 µM | GI50 (M14 melanoma): 12.8 µM | TGI (M14 melanoma): 25.8 µM | GI50 (MALME-3M melanoma): 11.4 µM | TGI (MALME-3M melanoma): 22.4 µM | GI50 (MCF7 breast): 10.8 µM | TGI (MCF7 breast): 24 µM | GI50 (MDA-MB-231 breast): 14.4 µM | TGI (MDA-MB-231 breast): 26.6 µM | GI50 (MDA-MB-435): 13 µM | TGI (MDA-MB-435): 25.4 µM | GI50 (MDA-MB-468 breast): 10.7 µM | TGI (MDA-MB-468 breast): 22.3 µM | GI50 (MOLT-4 leukemia): 13.3 µM | TGI (MOLT-4 leukemia): 37.9 µM | GI50 (NCI-H226 lung): 13.3 µM | TGI (NCI-H226 lung): 28.3 µM | GI50 (NCI-H23 lung): 11.3 µM | TGI (NCI-H23 lung): 23.6 µM | GI50 (NCI-H460 lung): 14.4 µM | TGI (NCI-H460 lung): 29 µM | GI50 (NCI-H522 lung): 12.6 µM | TGI (NCI-H522 lung): 25.6 µM | GI50 (NCI/ADR-RES ovarian): 16.6 µM | TGI (NCI/ADR-RES ovarian): 37.1 µM | GI50 (OVCAR-3 ovarian): 11.5 µM | TGI (OVCAR-3 ovarian): 23.3 µM | GI50 (OVCAR-4 ovarian): 13.6 µM | TGI (OVCAR-4 ovarian): 28.2 µM | GI50 (OVCAR-5 ovarian): 12.6 µM | TGI (OVCAR-5 ovarian): 23.9 µM | GI50 (OVCAR-8 ovarian): 16.9 µM | TGI (OVCAR-8 ovarian): 45.6 µM | GI50 (PC-3 prostate): 11.2 µM | TGI (PC-3 prostate): 28.1 µM | GI50 (RPMI-8226 leukemia): 8.05 µM | TGI (RPMI-8226 leukemia): 53.6 µM | GI50 (RXF 393 renal): 9.16 µM | TGI (RXF 393 renal): 20.3 µM | GI50 (SF-268 CNS): 12.4 µM | TGI (SF-268 CNS): 25.3 µM | GI50 (SF-295 CNS): 7.22 µM | TGI (SF-295 CNS): 18.3 µM | GI50 (SF-539 CNS): 9.78 µM | TGI (SF-539 CNS): 20.1 µM | GI50 (SK-MEL-2 melanoma): 13.6 µM | TGI (SK-MEL-2 melanoma): 26.2 µM | GI50 (SK-MEL-28 melanoma): 10.5 µM | TGI (SK-MEL-28 melanoma): 21.1 µM | GI50 (SK-MEL-5 melanoma): 11.9 µM | TGI (SK-MEL-5 melanoma): 23.2 µM | GI50 (SK-OV-3 ovarian): 13.2 µM | TGI (SK-OV-3 ovarian): 26.8 µM | GI50 (SN12C renal): 12.1 µM | TGI (SN12C renal): 23.7 µM | GI50 (SNB-19 CNS): 12.2 µM | TGI (SNB-19 CNS): 23.5 µM | GI50 (SNB-75 CNS): 9.24 µM | TGI (SNB-75 CNS): 19.7 µM | GI50 (SR leukemia): 3.27 µM | TGI (SR leukemia): 18.2 µM | GI50 (SW-620 colon): 13.1 µM | TGI (SW-620 colon): 25.4 µM | GI50 (T-47D breast): 12 µM | TGI (T-47D breast): 28.9 µM | GI50 (TK-10 renal): 16.4 µM | TGI (TK-10 renal): 29.1 µM | GI50 (U251 CNS): 11.1 µM | TGI (U251 CNS): 23.3 µM | GI50 (UACC-257 melanoma): 13.1 µM | TGI (UACC-257 melanoma): 25.8 µM | GI50 (UACC-62 melanoma): 12.8 µM | TGI (UACC-62 melanoma): 24.1 µM | GI50 (UO-31 renal): 10.9 µM | TGI (UO-31 renal): 21.7 µM

O=C(C[C@@H](C(=O)NCc1cccc(C(F)(F)F)c1)N1C(=O)[C@@H](N2C(=O)OC[C@@H]2c2ccccc2)[C@H]1/C=C/c1ccccc1)NC1CCN(Cc2ccccc2)CC1
GI50 (MDA-MB-468 breast): 2.66 µM | TGI (MDA-MB-468 breast): 18.4 µM

Cc1cc(C2CCCCC2)n(O)c(=O)c1
GI50 (MDA-MB-468 breast): 1.72 µM | TGI (MDA-MB-468 breast): 8.96 µM

COc1ccc(-n2c(SCc3cc(OC)c(OC)c(OC)c3)nc3ccc(C)cc3c2=O)cc1
GI50 (MDA-MB-468 breast): 3.39 µM | TGI (MDA-MB-468 breast): 48.3 µM

COc1ccc(C2CC(=O)c3c(O)c(OC)c(OC)c(OC)c3O2)c(O)c1 (configuration not stated)
GI50 (MDA-MB-468 breast): 0.0831 µM | TGI (MDA-MB-468 breast): 36.9 µM

CC(C)CSc1nc(Nc2ccccc2)c(C#N)c(-c2ccc(F)cc2)n1
GI50 (MDA-MB-468 breast): 3.07 µM | TGI (MDA-MB-468 breast): 17.4 µM

COc1ccc(S(=O)(=O)N(Cc2ccc3c(n2)C=CC(C)(C)O3)C2CCC2)cc1OC
GI50 (MDA-MB-468 breast): < 0.01 µM | TGI (MDA-MB-468 breast): < 0.01 µM

Cn1cc(C2=C(c3cn(C)c4c(N)cccc34)C(=O)NC2=O)c2ccccc21
GI50 (MDA-MB-468 breast): 1.28 µM | TGI (MDA-MB-468 breast): > 25 µM
